{"source": "patent US10604554B2", "about": "“Double-acylated GLP-1 derivatives” (Novo Nordisk A/S, priority 2012, dated 2020)"}
{"target": "T1, human GLP-1 receptor (Homo sapiens, UniProt P43220)", "T1 construct": "expressed in transfected cells; host or cells: BHK cells, clone FCW467-12A/KZ10-1 (parent line BHKTS13), further transfected with CRE luciferase", "T1 sequence (P43220 24-463)": "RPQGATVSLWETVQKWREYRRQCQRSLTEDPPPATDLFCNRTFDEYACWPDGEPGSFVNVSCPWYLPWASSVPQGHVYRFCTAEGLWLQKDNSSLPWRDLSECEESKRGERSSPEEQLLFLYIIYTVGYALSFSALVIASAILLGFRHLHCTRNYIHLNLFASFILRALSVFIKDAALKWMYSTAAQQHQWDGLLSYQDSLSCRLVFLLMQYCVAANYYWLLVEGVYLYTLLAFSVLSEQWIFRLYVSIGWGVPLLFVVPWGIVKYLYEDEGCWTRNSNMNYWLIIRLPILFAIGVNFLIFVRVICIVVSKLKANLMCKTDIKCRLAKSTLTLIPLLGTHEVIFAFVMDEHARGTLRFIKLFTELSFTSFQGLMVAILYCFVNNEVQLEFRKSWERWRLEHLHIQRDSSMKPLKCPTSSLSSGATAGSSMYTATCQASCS", "test": "In vitro potency (AlphaScreen cAMP, membranes)", "type": "biochemical", "settings": "not given", "in_short": "(§1)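 AlphaScreen competition read-out (anti-cAMP acceptor beads vs biotinylated cAMP, 3 h room temperature) quantified cAMP made by human GLP-1 receptor membranes, 6 μg/well, from stably transfected BHK467-12A cells. Buffer pH 7.4 contained 1 mM ATP, 1 μM GTP, 0.5 mM IBMX and 0.1% BSA; cAMP standard curve included.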", "units": {"EC50": "nM"}}
{"smiles": "CC[C@H](C)[C@H](NC(=O)[C@H](Cc1ccccc1)NC(=O)[C@H](CCC(=O)O)NC(=O)[C@H](CCCCNC(=O)[C@@H](N)CCCCNC(=O)[C@@H](N)CCCCNC(=O)CC[C@H](NC(=O)CCCCCCCCCOc1ccc(C(=O)O)cc1)C(=O)O)NC(=O)[C@H](C)NC(=O)[C@H](C)NC(=O)[C@H](CCC(N)=O)NC(=O)CNC(=O)[C@H](CCC(=O)O)NC(=O)[C@H](CC(C)C)NC(=O)[C@H](Cc1ccc(O)cc1)NC(=O)[C@H](CO)NC(=O)[C@H](CO)NC(=O)[C@@H](NC(=O)[C@H](CC(=O)O)NC(=O)[C@H](CO)NC(=O)[C@@H](NC(=O)[C@H](Cc1ccccc1)NC(=O)[C@@H](NC(=O)CNC(=O)[C@H](CCC(=O)O)NC(=O)C(C)(C)NC(=O)[C@@H](N)Cc1c[nH]cn1)[C@@H](C)O)[C@@H](C)O)C(C)C)C(=O)N[C@@H](C)C(=O)N[C@@H](Cc1c[nH]c2ccccc12)C(=O)N[C@@H](CC(C)C)C(=O)N[C@H](C(=O)N[C@@H](CCCNC(=N)N)C(=O)NCC(=O)N[C@@H](CCCNC(=N)N)C(=O)N[C@@H](CCCCNC(=O)[C@@H](N)CCCCNC(=O)[C@@H](N)CCCCNC(=O)CC[C@H](NC(=O)CCCCCCCCCOc1ccc(C(=O)O)cc1)C(=O)O)C(=O)O)C(C)C", "note": "[Example 1, N^ε26-[(2S)-2-amino-6-[[(2S)-2-amino-6-[[(4S)-4-carboxy-4-[10-(4-carboxyphenoxy)decanoylamino]butanoyl]amino]hexanoyl]amino]hexanoyl], N^ε37-[(2S)-2-amino-6-[[(2S)-2-amino-6-[[(4S)-4-carboxy-4-[10-(4-carboxyphenoxy)decanoylamino]butanoyl]amino]hexanoyl]amino]hexanoyl]-[Aib^8, Arg^34,Lys^37]-GLP-1-(7-37)-peptide]", "EC50": 0.059}
{"smiles": "CC[C@H](C)[C@H](NC(=O)[C@H](Cc1ccccc1)NC(=O)[C@H](CCC(=O)O)NC(=O)[C@H](CCCCNC(=O)[C@@H](N)CCCCNC(=O)COCCOCCNC(=O)COCCOCCNC(=O)CC[C@H](NC(=O)CCCCCCCCCOc1ccc(C(=O)O)cc1)C(=O)O)NC(=O)[C@H](C)NC(=O)[C@H](C)NC(=O)[C@H](CCC(N)=O)NC(=O)CNC(=O)[C@H](CCC(=O)O)NC(=O)[C@H](CC(C)C)NC(=O)[C@H](Cc1ccc(O)cc1)NC(=O)[C@H](CO)NC(=O)[C@H](CO)NC(=O)[C@@H](NC(=O)[C@H](CC(=O)O)NC(=O)[C@H](CO)NC(=O)[C@@H](NC(=O)[C@H](Cc1ccccc1)NC(=O)[C@@H](NC(=O)CNC(=O)[C@H](CCC(=O)O)NC(=O)C(C)(C)NC(=O)[C@@H](N)Cc1c[nH]cn1)[C@@H](C)O)[C@@H](C)O)C(C)C)C(=O)N[C@@H](C)C(=O)N[C@@H](Cc1c[nH]c2ccccc12)C(=O)N[C@@H](CC(C)C)C(=O)N[C@H](C(=O)N[C@@H](CCCNC(=N)N)C(=O)NCC(=O)N[C@@H](CCCNC(=N)N)C(=O)N[C@@H](CCCCNC(=O)[C@@H](N)CCCCNC(=O)COCCOCCNC(=O)COCCOCCNC(=O)CC[C@H](NC(=O)CCCCCCCCCOc1ccc(C(=O)O)cc1)C(=O)O)C(=O)O)C(C)C", "note": "[Example 5]", "EC50": 0.033}
{"smiles": "CC[C@H](C)[C@H](NC(=O)[C@H](Cc1ccccc1)NC(=O)[C@H](CCC(=O)O)NC(=O)[C@H](CCCCNC(=O)[C@@H](N)CCCCNC(=O)[C@@H](N)CCCCNC(=O)CC[C@H](NC(=O)CCCCCCCNC(=O)CCCCCCCCCOc1ccc(C(=O)O)cc1)C(=O)O)NC(=O)[C@H](C)NC(=O)[C@H](C)NC(=O)[C@H](CCC(N)=O)NC(=O)CNC(=O)[C@H](CCC(=O)O)NC(=O)[C@H](CC(C)C)NC(=O)[C@H](Cc1ccc(O)cc1)NC(=O)[C@H](CO)NC(=O)[C@H](CO)NC(=O)[C@@H](NC(=O)[C@H](CC(=O)O)NC(=O)[C@H](CO)NC(=O)[C@@H](NC(=O)[C@H](Cc1ccccc1)NC(=O)[C@@H](NC(=O)CNC(=O)[C@H](CCC(=O)O)NC(=O)C(C)(C)NC(=O)[C@@H](N)Cc1c[nH]cn1)[C@@H](C)O)[C@@H](C)O)C(C)C)C(=O)N[C@@H](C)C(=O)N[C@@H](Cc1c[nH]c2ccccc12)C(=O)N[C@@H](CC(C)C)C(=O)N[C@H](C(=O)N[C@@H](CCCNC(=N)N)C(=O)NCC(=O)N[C@@H](CCCNC(=N)N)C(=O)N[C@@H](CCCCNC(=O)[C@@H](N)CCCCNC(=O)[C@@H](N)CCCCNC(=O)CC[C@H](NC(=O)CCCCCCCNC(=O)CCCCCCCCCOc1ccc(C(=O)O)cc1)C(=O)O)C(=O)O)C(C)C", "note": "[Example 26, N^ε26-[(2S)-2-amino-6-[[(2S)-2-amino-6-[[(4S)-4-carboxy-4-[8-[10-(4-carboxyphenoxy)decanoylamino]octanoylamino]butanoyl]amino]hexanoyl]amino]hexanoyl], N^ε37-[(2S)-2-amino-6-[[(2S)-2-amino-6-[[(4S)-4-carboxy-4-[8-[10-(4-carboxyphenoxy)decanoylamino]octanoylamino]butanoyl]amino]hexanoyl]amino]hexanoyl]-[Aib^8,Arg^34,Lys^37]-GLP-1-(7-37)-peptide]", "EC50": 0.135}
{"smiles": "CC[C@H](C)[C@H](NC(=O)[C@H](Cc1ccccc1)NC(=O)[C@H](CCC(=O)O)NC(=O)[C@H](CCCCNC(=O)[C@@H](N)CCCCNC(=O)[C@@H](N)CCCCNC(=O)CC[C@H](NC(=O)CCCCCCCCCCCOc1ccc(C(=O)O)cc1)C(=O)O)NC(=O)[C@H](C)NC(=O)[C@H](C)NC(=O)[C@H](CCC(N)=O)NC(=O)CNC(=O)[C@H](CCC(=O)O)NC(=O)[C@H](CC(C)C)NC(=O)[C@H](Cc1ccc(O)cc1)NC(=O)[C@H](CO)NC(=O)[C@H](CO)NC(=O)[C@@H](NC(=O)[C@H](CC(=O)O)NC(=O)[C@H](CO)NC(=O)[C@@H](NC(=O)[C@H](Cc1ccccc1)NC(=O)[C@@H](NC(=O)CNC(=O)[C@H](CCC(=O)O)NC(=O)C(C)(C)NC(=O)[C@@H](N)Cc1c[nH]cn1)[C@@H](C)O)[C@@H](C)O)C(C)C)C(=O)N[C@@H](C)C(=O)N[C@@H](Cc1c[nH]c2ccccc12)C(=O)N[C@@H](CC(C)C)C(=O)N[C@H](C(=O)N[C@@H](CCCNC(=N)N)C(=O)NCC(=O)N[C@@H](CCCNC(=N)N)C(=O)N[C@@H](CCCCNC(=O)[C@@H](N)CCCCNC(=O)[C@@H](N)CCCCNC(=O)CC[C@H](NC(=O)CCCCCCCCCCCOc1ccc(C(=O)O)cc1)C(=O)O)C(=O)O)C(C)C", "note": "[Example 7, N^ε26-[(2S)-2-amino-6-[[(2S)-2-amino-6-[[(4S)-4-carboxy-4-[12-(4-carboxyphenoxy)dodecanoylamino]butanoyl]amino]hexanoyl]amino]hexanoyl], N^ε37-[(2S)-2-amino-6-[[(2S)-2-amino-6-[[(4S)-4-carboxy-4-[12-(4-carboxyphenoxy)dodecanoylamino]butanoyl]amino]hexanoyl]amino]hexanoyl]-[Aib^8,Arg^34,Lys^37]-GLP-1-(7-37)-peptide]", "EC50": 0.136}
{"target": "T1, human GLP-1 receptor", "test": "In vitro potency (AlphaScreen cAMP, membranes)", "type": "biochemical", "settings": "cAMP formation in membranes from BHK467-12A cells expressing human GLP-1 receptor; read-out: In vitro potency (AlphaScreen) EC50", "in_short": "as §1", "units": {"EC50": "nM"}}
{"smiles": "CC[C@H](C)[C@H](NC(=O)[C@H](Cc1ccccc1)NC(=O)[C@H](CCC(=O)O)NC(=O)[C@H](CCCCNC(=O)[C@@H](N)CCCCNC(=O)[C@@H](N)CCCCNC(=O)CC[C@H](NC(=O)CCCCCCCCCCCCC(=O)O)C(=O)O)NC(=O)[C@H](C)NC(=O)[C@H](C)NC(=O)[C@H](CCC(N)=O)NC(=O)CNC(=O)[C@H](CCC(=O)O)NC(=O)[C@H](CC(C)C)NC(=O)[C@H](Cc1ccc(O)cc1)NC(=O)[C@H](CO)NC(=O)[C@H](CO)NC(=O)[C@@H](NC(=O)[C@H](CC(=O)O)NC(=O)[C@H](CO)NC(=O)[C@@H](NC(=O)[C@H](Cc1ccccc1)NC(=O)[C@@H](NC(=O)CNC(=O)[C@H](CCC(=O)O)NC(=O)C(C)(C)NC(=O)[C@@H](N)Cc1c[nH]cn1)[C@@H](C)O)[C@@H](C)O)C(C)C)C(=O)N[C@@H](C)C(=O)N[C@@H](Cc1c[nH]c2ccccc12)C(=O)N[C@@H](CC(C)C)C(=O)N[C@H](C(=O)N[C@@H](CCCNC(=N)N)C(=O)NCC(=O)N[C@@H](CCCNC(=N)N)C(=O)N[C@@H](CCCCNC(=O)[C@@H](N)CCCCNC(=O)[C@@H](N)CCCCNC(=O)CC[C@H](NC(=O)CCCCCCCCCCCCC(=O)O)C(=O)O)C(=O)O)C(C)C", "note": "[Example 2, N^ε26-[(2S)-2-amino-6-[[(2S)-2-amino-6-[[(4S)-4-carboxy-4-(13-carboxytridecanoylamino)butanoyl]amino]hexanoyl]amino]hexanoyl], N^ε37-[(2S)-2-amino-6-[[(2S)-2-amino-6-[[(4S)-4-carboxy-4-(13-carboxytridecanoylamino)butanoyl]amino]hexanoyl]amino]hexanoyl]-[Aib^8,Arg^34,Lys^37]-GLP-1-(7-37)-peptide]", "EC50": 0.044}
{"smiles": "CC[C@H](C)[C@H](NC(=O)[C@H](Cc1ccccc1)NC(=O)[C@H](CCC(=O)O)NC(=O)[C@H](CCCCNC(=O)[C@@H](N)CCCCNC(=O)COCCOCCNC(=O)COCCOCCNC(=O)CC[C@H](NC(=O)CCCCCCCCCCCCC(=O)O)C(=O)O)NC(=O)[C@H](C)NC(=O)[C@H](C)NC(=O)[C@H](CCC(N)=O)NC(=O)CNC(=O)[C@H](CCC(=O)O)NC(=O)[C@H](CC(C)C)NC(=O)[C@H](Cc1ccc(O)cc1)NC(=O)[C@H](CO)NC(=O)[C@H](CO)NC(=O)[C@@H](NC(=O)[C@H](CC(=O)O)NC(=O)[C@H](CO)NC(=O)[C@@H](NC(=O)[C@H](Cc1ccccc1)NC(=O)[C@@H](NC(=O)CNC(=O)[C@H](CCC(=O)O)NC(=O)C(C)(C)NC(=O)[C@@H](N)Cc1c[nH]cn1)[C@@H](C)O)[C@@H](C)O)C(C)C)C(=O)N[C@@H](C)C(=O)N[C@@H](Cc1c[nH]c2ccccc12)C(=O)N[C@@H](CC(C)C)C(=O)N[C@H](C(=O)N[C@@H](CCCNC(=N)N)C(=O)NCC(=O)N[C@@H](CCCNC(=N)N)C(=O)N[C@@H](CCCCNC(=O)[C@@H](N)CCCCNC(=O)COCCOCCNC(=O)COCCOCCNC(=O)CC[C@H](NC(=O)CCCCCCCCCCCCC(=O)O)C(=O)O)C(=O)O)C(C)C", "note": "[Example 19, N^ε26-[(2S)-2-amino-6-[[2-[2-[2-[[2-[2-[2-[[(4S)-4-carboxy-4-(13-carboxytridecanoylamino)butanoyl]amino]ethoxy]ethoxy]acetyl]amino]ethoxy]ethoxy]acetyl]amino]hexanoyl], N^ε37-[(2S)-2-amino-6-[[2-[2-[2-[[2-[2-[2-[[(4S)-4-carboxy-4-(13-carboxytridecanoylamino)butanoyl]amino]ethoxy]ethoxy]acetyl]amino]ethoxy]ethoxy]acetyl]amino]hexanoyl]-[Aib^8,Arg^34,Lys^37]-GLP-1-(7-37)-peptide]", "EC50": 0.057}
